# Earlier results as cited in patent publication US6541424B2, “Manufacture and use of a herbicide formulation” (Helena Chemical Company, priority 2000, dated 2003).
smiles,measurement,value
O=C(O)CNCP(=O)(O)O [Glyphosate],solubility in water,approximately 1.2%
